{"source": "paper PMC11621109", "about": "“Increasing sustainability and reproducibility of in vitro toxicology applications: serum-free cultivation of HepG2 cells” (Frontiers in Toxicology, 2024)", "format_in_all_cases": "cell-based, human", "key": {"p-serin 422 of EIF4B": {"test_system": "p-serin 422 of EIF4B", "assay": "Cellular fingerprint assay (Luminex): EIF4B", "conditions": "24 h; all culture conditions (amiodarone: highest concentration)", "procedure": "(§1) To measure intracellular drug response markers, HepG2 cells cultivated in standard medium containing FBS, Advanced DMEM/F12 or TCM® Serum Replacement were seeded in 384-well plates and incubated for 24 h. After incubation, cells were treated with selected MIP-DILI compounds or negative controls in a three-fold dilution series performed in triplicates using the Tecan 300e Dispenser ([Dragovic et al., 2016]). Additionally, cells were treated with assay specific control substances (see Supplementary Table S2). Treatment was performed for 24 h. After treatment, media was carefully aspirated und cells were lysed by adding 40 µL lysis buffer (Supplementary Table S3) to each well. The plates were incubated for 30 min at 4°C and either stored at −80°C or used immediately.\n(§2) Intracellular drug response markers were assessed using the Luminex technology. Color-coded beads from NMI specific for one analyte each were used to qualify and quantify p-serin 10 of Histon H3 (cell division marker), LC3B (autophagy marker), PARP (cell death/apoptosis marker), HSP70 (stress response marker), p-serin 2/5 of RNA-Polymerase II (protein transcription marker), p-serin 422 of EIF4B (protein synthesis marker) and HIF1-alpha (oxidative stress marker).\n(§3) For hybridization, 25 μL cell lysate of each sample was transferred to a fresh 384-well plate. […]"}, "[1]": {"test_system": "PARP (cell death/apoptosis marker)", "assay": "Cellular fingerprint assay (Luminex): PARP", "conditions": "24 h", "procedure": "as §1, §2\n(§4) For hybridization, 25 μL cell lysate of each sample was transferred to a fresh 384-well plate. 25 μL prepared bead mix and 25 µL assay buffer were added and the plate was sealed. Plates were incubated for 16–20 h at 4°C and 600 rpm. The TS Pro thermal plate shaker from CellMedia was used for all incubation steps.\n(§5) After incubation the plates were washed and successively incubated with 15 µL detection antibody (1 h, RT, 650 rpm) and 15 µL streptavidin, R-phycoerythrin conjugate (SAPE; 45 min, RT, 650 rpm). After each step, the plates were washed three times with wash buffer. Before measurement, 90 µL assay buffer was added to each well and the plates were incubated for 10 min at RT and 700 rpm. Measurement was performed using the Luminex™ FlexMAP 3D from ThermoFisher."}, "[2]": {"test_system": "p-serin 2/5 of RNA-Polymerase II", "assay": "Cellular fingerprint assay (Luminex): RNA Pol II", "conditions": "24 h", "procedure": "as §1, §2, §4, §5"}, "LC3B (autophagy marker)": {"test_system": "LC3B (autophagy marker)", "assay": "Cellular fingerprint assay (Luminex): LC3B", "conditions": "24 h", "procedure": "as §1, §2, §3"}, "[3]": {"test_system": "HSP70 (stress response marker)", "assay": "Cellular fingerprint assay (Luminex): HSP70", "conditions": "24 h", "procedure": "as §1, §2, §4, §5"}, "[4]": {"test_system": "GSH content of HepG2 cells", "assay": "GSH-Glo glutathione assay (oxidative stress)", "conditions": "24 h", "procedure": "To assess oxidative stress in cells in response to compound treatment, the GSH-Glo™ Glutathione Assay from Promega was used according to manufacturer’s instructions (V6912). HepG2 cells cultivated in standard medium containing FBS, Advanced DMEM/F12 or TCM® Serum Replacement were seeded in 384-well plates, incubated for 24 h, and subsequently treated with the MIP-DILI reference compounds, negative controls, or internal controls in a three-fold dilution series performed in triplicates using the Tecan 300e Dispenser ([Dragovic et al., 2016]). Treatment was performed for 24 h.\nAssay reagents and plates were first equilibrated to room temperature. GSH-Glo™ Reagent 1x was obtained by diluting Luciferin-NT substrate and Glutathione S-Transferase 1:100 in GSH-Glo™ Reaction Buffer. Luciferin Detection reagent was dissolved in Reconstitution Buffer with Esterase.\nThe medium was aspirated, GSH-Glo™ Reagent 1x was added to the cells and plates were shaken for 2 min and subsequently incubated for 30 min at room temperature protected from light. Afterwards, reconstituted Luciferin Detection Reagent was added, and cells were again shaken for 2 min before incubation for 15 min at room temperature in the dark. Luminescence was measured using the Varioskan Plate Reader from Thermo Fisher."}, "HepG2 cells [5]": {"test_system": "HepG2 cells", "assay": "Cellular fingerprint assay: overall marker response / cell death", "conditions": "24 h", "procedure": "as §1, §2, §3"}, "HepG2 cells [6]": {"test_system": "HepG2 cells", "assay": "Mitochondrial toxicity assay (Glucose/Galactose assay)", "conditions": "HepG2 cultured in Advanced DMEM/F12; 2 h treatment", "procedure": "To assess mitochondrial toxicity, the Glucose/Galactose Assay was used. HepG2 cells cultivated in standard medium containing FBS, Advanced DMEM/F12 or TCM® Serum Replacement were seeded in 384-well plates and incubated for 48 h. Cells were washed once, and subsequently switched to DMEM (ThermoFisher, 11966025) supplemented with sodium pyruvate, HEPES and either 25 mM D-glucose or 10 mM D-galactose without FBS to avoid residual glucose. Cells were pre-incubated for 4 h before treatment with the MIP-DILI reference compounds, negative controls or internal controls ([Dragovic et al., 2016]). Treatment was performed in a three-fold dilution series in triplicates using the Tecan 300e Dispenser. Cells were treated for 2 h, and the read-out was performed by measuring cell viability using the CellTiter-Glo® reagent as described previously. IC50 values were obtained from dose response curves in GraphPad Prism using a log(inhibitor) vs. response model (variable slope, four parameters, bottom constraint = 0). Mitochondrial toxicity was assessed by calculating the IC50Glc/IC50Gal ratio and the threshold for risk for mitochondrial toxicity was set at >2."}, "[7]": {"test_system": "HIF1-alpha (oxidative stress marker)", "assay": "Cellular fingerprint assay (Luminex): HIF-1-alpha", "conditions": "24 h", "procedure": "as §1, §2, §4, §5"}, "[8]": {"conditions": "highest concentration, across all media"}, "[9]": {"conditions": "all culture conditions (amiodarone: highest concentration)"}, "[10]": {"conditions": "comparable results for all culture conditions"}}, "note": "*1 amine or outer side, *2 acyl side, *3 side chain or, on linkers, in order; H or OH if unused. Where a SMILES comes first, the peptide text is derived from it. Bridges are numbered along the chain shown (N, C = ends). Roman numbers before positions name the chains, in order. [ ]: non-standard residue; d: D form. Actinocin(9to1) = Cc1c2oc3c(C)ccc(C(=O)[*:1])c3nc-2c(C(=O)[*:2])c(N)c1=O; NMeV = CN[C@H](C(=O)O)C(C)C; Sar = CNCC(=O)O", "data": [{"smiles": "CCCCc1oc2ccccc2c1C(=O)c1cc(I)c(OCCN(CC)CC)c(I)c1", "note": "[Amiodarone]", "values": [{"measurement": "EIF4B levels", "setting": "p-serin 422 of EIF4B", "value": "decrease"}, {"measurement": "PARP levels", "setting": "[1]; [8]", "value": "elevated PARP levels"}, {"measurement": "RNA Pol II levels", "setting": "[2]; [9]", "value": "decrease"}, {"measurement": "LC3B levels", "setting": "LC3B (autophagy marker); second highest concentration, similar in all conditions", "value": "elevated LC3B levels"}, {"measurement": "HSP70 levels", "setting": "[3]; [8]", "value": "decrease"}]}, {"smiles": "O=C1CC2(CCCC2)CC(=O)N1CCCCN1CCN(c2ncccn2)CC1", "note": "[Buspirone]", "values": [{"measurement": "changes in GSH", "setting": "[4]; [10]", "value": "viability dependent changes in GSH"}]}, {"smiles": "CCCCS(=N)(=O)CCC(N)C(=O)O", "note": "(stereo not shown) [Buthionine sulfoximine (BSO), Buthionine sulfoximine]", "values": [{"measurement": "changes in GSH", "setting": "[4]; independently from viability, less profound in serum-free media", "value": "strong decrease in GSH"}]}, {"smiles": "O=C(O)Cc1ccccc1Nc1c(Cl)cccc1Cl", "note": "[Diclofenac]", "values": [{"measurement": "changes in GSH", "setting": "[4]; [10]", "value": "viability dependent changes in GSH"}]}, {"smiles": "CN(C)C(=N)N=C(N)N", "note": "[Metformin]", "values": [{"measurement": "RNA Pol II levels", "setting": "[2]; highest concentration tested, Advanced DMEM/F12", "value": "slight decrease"}, {"measurement": "elevation of intracellular drug response markers", "setting": "HepG2 cells [5]; all seven markers", "value": "did not result in elevated markers"}]}, {"smiles": "CCc1nn(CCCN2CCN(c3cccc(Cl)c3)CC2)c(=O)n1CCOc1ccccc1", "note": "[Nefazodone]", "values": [{"measurement": "changes in GSH", "setting": "[4]; [10]", "value": "viability dependent changes in GSH"}]}, {"smiles": "CC(=O)O[C@H]1C(=O)[C@@]2(C)[C@H]([C@H](OC(=O)c3ccccc3)[C@]3(O)C[C@H](OC(=O)[C@H](O)[C@@H](NC(=O)c4ccccc4)c4ccccc4)C(C)=C1C3(C)C)[C@]1(OC(C)=O)CO[C@@H]1C[C@@H]2O", "note": "[Paclitaxel]", "values": [{"measurement": "changes in GSH", "setting": "[4]; at high concentrations, increase significantly lower in both serum-free media", "value": "increase in GSH"}]}, {"smiles": "C1CCC(C(CC2CCCCN2)C2CCCCC2)CC1", "note": "(stereo not shown) [Perhexiline]", "values": [{"measurement": "PARP level", "setting": "[1]; Advanced DMEM/F12 only", "value": "significant increase in PARP"}, {"measurement": "changes in GSH", "setting": "[4]; [10]", "value": "viability dependent changes in GSH"}, {"measurement": "mitochondrial toxicity call (IC50Glc/IC50Gal fold change vs two-fold threshold)", "setting": "HepG2 cells [6]", "value": "identified as a potential mitochondrial toxin"}, {"measurement": "concentrations at which cell death occurred", "setting": "HepG2 cells [5]; multiple markers drastically reduced or below detection limit", "value": "≥ 16.7", "unit": "µM"}]}, {"smiles": "C/C=C(/C)C(=O)O[C@H]1C(C)=C2[C@H]([C@@H]1OC(=O)CCCCCCC)[C@@](C)(OC(C)=O)C[C@H](OC(=O)CCC)[C@@]1(O)[C@H]2OC(=O)[C@@]1(C)O", "note": "[Thapsigargin]", "values": [{"measurement": "changes in GSH", "setting": "[4]; at low concentrations, increase significantly lower in both serum-free media", "value": "increase in GSH"}]}, {"smiles": "Cc1c2oc3c(C)ccc(C(=O)N[C@@H]4C(=O)N[C@H](C(C)C)C(=O)N5CCC[C@H]5C(=O)N(C)CC(=O)N(C)[C@@H](C(C)C)C(=O)O[C@@H]4C)c3nc-2c(C(=O)N[C@@H]2C(=O)N[C@H](C(C)C)C(=O)N3CCC[C@H]3C(=O)N(C)CC(=O)N(C)[C@@H](C(C)C)C(=O)O[C@@H]2C)c(N)c1=O", "note": "[actinomycin D, Actinomycin D] (I: T[dV]P[Sar][NMeV] / II: T[dV]P[Sar][NMeV]; ester I:1-I:C, II:1-II:C; linker I:N-II:N via Actinocin(9to1))", "values": [{"measurement": "EIF4B levels", "setting": "p-serin 422 of EIF4B", "value": "significant decrease"}, {"measurement": "fold change (response, Figure 7C)", "setting": "[1]; Advanced DMEM/F12", "value": 11.3}, {"measurement": "fold change (response, Figure 7C)", "setting": "[1]; TCM", "value": 6.6}, {"measurement": "fold change (response, Figure 7C)", "setting": "[1]; standard medium", "value": 3.1}, {"measurement": "RNA Pol II levels", "setting": "[2]; [9]", "value": "significant decrease"}]}, {"smiles": "CO/C1=C\\C(C)=C\\[C@@H](C)[C@@H](O)[C@@H](C)C/C(C)=C/C=C/[C@H](OC)[C@@H]([C@@H](C)[C@@H](O)[C@H](C)[C@@]2(O)C[C@@H](O)[C@H](C)[C@@H](C(C)C)O2)OC1=O", "note": "[bafilomycin, Bafilomycin A1]", "values": [{"measurement": "LC3B levels", "setting": "LC3B (autophagy marker); similar response in all culture conditions", "value": "strong increase in LC3B levels"}]}, {"smiles": "CC(=O)N(O)CCCCCNC(=O)CCC(=O)N(O)CCCCCNC(=O)CCC(=O)N(O)CCCCCN", "note": "[deferoxamine, Deferoxamin Mesylat]", "values": [{"measurement": "PARP level", "setting": "[1]; serum-free media", "value": "not observed"}, {"measurement": "PARP level", "setting": "[1]; standard medium", "value": "increased PARP level"}, {"measurement": "HIF-1-alpha levels", "setting": "[7]; Advanced DMEM/F12, treated vs. untreated cells", "value": "no significant increase in HIF-1-alpha levels"}, {"measurement": "HIF-1-alpha levels", "setting": "[7]; TCM", "value": "elevated HIF-1-alpha levels"}, {"measurement": "HIF-1-alpha levels", "setting": "[7]; standard medium", "value": "elevated HIF-1-alpha levels"}]}, {"smiles": "COC1=C2C[C@@H](C)C[C@H](OC)[C@H](O)[C@@H](C)/C=C(\\C)[C@H](OC(N)=O)[C@@H](OC)/C=C\\C=C(/C)C(=O)NC(=CC1=O)C2=O", "note": "[geldanamycin, Geldanamycin]", "values": [{"measurement": "fold change (response, Figure 7B)", "setting": "[3]; Advanced DMEM/F12", "value": 20.6}, {"measurement": "fold change (response, Figure 7B)", "setting": "[3]; TCM", "value": 8.7}, {"measurement": "fold change (response, Figure 7B)", "setting": "[3]; standard medium", "value": 7.4}]}]}
